The record followed here is US9732119B2, “Immunomodulators” (BRISTOL-MYERS SQUIBB COMPANY, priority 2014, dated 2017).

pIC50: −log10 of the molar value.

The target in the experiment is T1, PD-1-Ig binding to PD-L1-TVMV-His (PD-L1-His) (Homo sapiens, UniProt Q9NZQ7).
T1 construct: hPDL1(19-239)-TVMV-His; made in house; host or cells: HEK293T cells
In words: PD-1/PD-L1 Homogenous Time-Resolved Fluorescence (HTRF) binding assay. Conditions: PD-1-Ig (20 nM) / PD-L1-His (10 nM). Summed up: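 HTRF competition: compound pre-incubated 15 min with PD-L1-His (10 nM final), then PD-1-Ig (20 nM final) added for 15 min in dPBS, 0.1% BSA, 0.05% Tween-20. Detection with Eu-cryptate anti-Ig (1 nM) and APC anti-His (20 nM) antibodies.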

T1 sequence (Q9NZQ7 with tags, fused parts or gaps): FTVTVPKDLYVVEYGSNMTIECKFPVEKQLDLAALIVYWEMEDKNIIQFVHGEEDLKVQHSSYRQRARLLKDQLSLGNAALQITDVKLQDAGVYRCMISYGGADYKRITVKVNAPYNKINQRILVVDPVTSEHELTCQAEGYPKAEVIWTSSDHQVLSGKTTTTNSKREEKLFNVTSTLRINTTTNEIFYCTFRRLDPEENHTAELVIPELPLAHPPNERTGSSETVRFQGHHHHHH

What is called pIC50 is −log10 of the IC50, conventionally taken in molar units. For the compound `CCCC[C@H]1C(=O)N(C)[C@@H](CCCC)C(=O)N[C@@H](CC(C)C)C(=O)N[C@H](C(N)=O)CNCC(=O)N[C@@H](Cc2ccc(F)cc2)C(=O)N2CCCC[C@H]2C(=O)N[C@@H](CC(=O)O)C(=O)N2CCC[C@H]2C(=O)N[C@@H](CCC(N)=O)C(=O)N[C@@H](CC(=O)O)C(=O)N2C[C@H](O)C[C@H]2C(=O)N[C@@H](Cc2c[nH]c3ccccc23)C(=O)N[C@@H](CC(N)=O)C(=O)N[C@@H](Cc2cn(CC(=O)O)c3ccccc23)C(=O)N1C` [Example 9039], the negative logarithm of the IC50 (pIC50) (range classes) was 8.00 to 9.00. On the same count and under the same terms, with `CCCC[C@H]1C(=O)N(C)[C@@H](CCCC)C(=O)N[C@@H](CC(C)C)C(=O)N[C@H](C(N)=O)CNCC(=O)N[C@@H](Cc2ccc(F)cc2)C(=O)N2CCCC[C@H]2C(=O)N[C@@H](CC(=O)O)C(=O)N2CCC[C@H]2C(=O)N[C@@H](CCC(N)=O)C(=O)N[C@@H](CCC(=O)O)C(=O)N2C[C@H](O)C[C@H]2C(=O)N[C@@H](Cc2c[nH]c3ccccc23)C(=O)N[C@@H](CC(N)=O)C(=O)N[C@@H](Cc2cn(CC(=O)O)c3ccccc23)C(=O)N1C` [Example 9040] the figure was 8.00 to 9.00.

As to `CCCC[C@H]1C(=O)N(C)[C@@H](CCCC)C(=O)N[C@@H](CC(C)C)C(=O)N[C@H](C(N)=O)CNCC(=O)N[C@@H](Cc2ccc(F)cc2)C(=O)N2CCCC[C@H]2C(=O)N[C@@H](CC(=O)O)C(=O)N2CCC[C@H]2C(=O)N[C@@H](CCC(N)=O)C(=O)N[C@@H](CCC(N)=O)C(=O)N2C[C@H](O)C[C@H]2C(=O)N[C@@H](Cc2c[nH]c3ccccc23)C(=O)N[C@@H](CC(N)=O)C(=O)N[C@@H](Cc2cn(CC(=O)O)c3ccccc23)C(=O)N1C` [Example 9041], for the setting “numeric values”, the negative-log IC50 (pIC50) was 8.30. For the compound `CCCC[C@H]1C(=O)N(C)[C@@H](CCCC)C(=O)N[C@@H](CCC(=O)O)C(=O)N[C@H](C(N)=O)CNCC(=O)N[C@@H](Cc2ccc(O)cc2)C(=O)N2CCCC[C@H]2C(=O)N[C@@H](CC(N)=O)C(=O)N2CCC[C@H]2C(=O)N[C@@H](CCC(N)=O)C(=O)N[C@@H](CC(C)C)C(=O)N2C[C@H](O)C[C@H]2C(=O)N[C@@H](Cc2c[nH]c3ccccc23)C(=O)N[C@@H](CC(N)=O)C(=O)N[C@@H](Cc2cn(CC(=O)O)c3ccccc23)C(=O)N1C` [Example 9042], the negative logarithm of the IC50 (pIC50) (range classes) is 8.00 to 9.00. The same measure, in the same setting: with `CCCC[C@H]1C(=O)N(C)[C@@H](CCCC)C(=O)N[C@@H](CCC(=O)O)C(=O)N[C@H](C(N)=O)CNCC(=O)N[C@@H](Cc2ccc(O)cc2)C(=O)N2CCCC[C@H]2C(=O)N[C@@H](CC(N)=O)C(=O)N2CCC[C@H]2C(=O)N[C@@H](CCC(N)=O)C(=O)N[C@@H](CC(=O)O)C(=O)N2C[C@H](O)C[C@H]2C(=O)N[C@@H](Cc2c[nH]c3ccccc23)C(=O)N[C@@H](CC(N)=O)C(=O)N[C@@H](Cc2cn(CC(=O)O)c3ccccc23)C(=O)N1C` [Example 9043] the figure was 8.00 to 9.00. Still for that read-out and setting: with `CCCC[C@H]1C(=O)N(C)[C@@H](CCCC)C(=O)N[C@@H](CCC(=O)O)C(=O)N[C@H](C(N)=O)CNCC(=O)N[C@@H](Cc2ccc(O)cc2)C(=O)N2CCCC[C@H]2C(=O)N[C@@H](CC(N)=O)C(=O)N2CCC[C@H]2C(=O)N[C@@H](CCC(N)=O)C(=O)N[C@@H](CCC(=O)O)C(=O)N2C[C@H](O)C[C@H]2C(=O)N[C@@H](Cc2c[nH]c3ccccc23)C(=O)N[C@@H](CC(N)=O)C(=O)N[C@@H](Cc2cn(CC(=O)O)c3ccccc23)C(=O)N1C` [Example 9044] the figure was 8.00 to 9.00; with `CCCC[C@H]1C(=O)N(C)[C@@H](CCCC)C(=O)N[C@@H](CCC(=O)O)C(=O)N[C@H](C(N)=O)CNCC(=O)N[C@@H](Cc2ccc(O)cc2)C(=O)N2CCCC[C@H]2C(=O)N[C@@H](CC(N)=O)C(=O)N2CCC[C@H]2C(=O)N[C@@H](CCC(N)=O)C(=O)N[C@@H](CCC(N)=O)C(=O)N2C[C@H](O)C[C@H]2C(=O)N[C@@H](Cc2c[nH]c3ccccc23)C(=O)N[C@@H](CC(N)=O)C(=O)N[C@@H](Cc2cn(CC(=O)O)c3ccccc23)C(=O)N1C` [Example 9045], 8.00 to 9.00. Same read-out and setting: the result for `CCCC[C@H]1C(=O)N(C)[C@@H](CCCC)C(=O)N[C@@H](CCC(=O)O)C(=O)N[C@H](C(N)=O)CNCC(=O)N[C@@H](Cc2ccc(F)cc2)C(=O)N2CCCC[C@H]2C(=O)N[C@@H](CC(N)=O)C(=O)N2CCC[C@H]2C(=O)N[C@@H](CCC(N)=O)C(=O)N[C@@H](CC(C)C)C(=O)N2C[C@H](O)C[C@H]2C(=O)N[C@@H](Cc2c[nH]c3ccccc23)C(=O)N[C@@H](CC(N)=O)C(=O)N[C@@H](Cc2cn(CC(=O)O)c3ccccc23)C(=O)N1C` [Example 9046] reads 8.00 to 9.00; that for `CCCC[C@H]1C(=O)N(C)[C@@H](CCCC)C(=O)N[C@@H](CCC(=O)O)C(=O)N[C@H](C(N)=O)CNCC(=O)N[C@@H](Cc2ccc(F)cc2)C(=O)N2CCCC[C@H]2C(=O)N[C@@H](CC(N)=O)C(=O)N2CCC[C@H]2C(=O)N[C@@H](CCC(N)=O)C(=O)N[C@@H](CCC(=O)O)C(=O)N2C[C@H](O)C[C@H]2C(=O)N[C@@H](Cc2c[nH]c3ccccc23)C(=O)N[C@@H](CC(N)=O)C(=O)N[C@@H](Cc2cn(CC(=O)O)c3ccccc23)C(=O)N1C` [Example 9047], 8.00 to 9.00. Where the note is “range classes”, `CCCC[C@H]1C(=O)N(C)[C@@H](CCCC)C(=O)N[C@@H](CCC(=O)O)C(=O)N[C@H](C(N)=O)CNCC(=O)N[C@@H](Cc2ccc(F)cc2)C(=O)N2CCCC[C@H]2C(=O)N[C@@H](CC(N)=O)C(=O)N2CCC[C@H]2C(=O)N[C@@H](CCC(N)=O)C(=O)N[C@@H](CCC(N)=O)C(=O)N2C[C@H](O)C[C@H]2C(=O)N[C@@H](Cc2c[nH]c3ccccc23)C(=O)N[C@@H](CC(N)=O)C(=O)N[C@@H](Cc2cn(CC(=O)O)c3ccccc23)C(=O)N1C` [Example 9048] showed a pIC50 of 8.00 to 9.00. Still for that read-out and setting: with `CCCC[C@H]1C(=O)N(C)[C@@H](CCCC)C(=O)N[C@@H](CC(C)C)C(=O)N[C@H](C(N)=O)CNCC(=O)N[C@@H](Cc2ccc(O)cc2)C(=O)N2CCCC[C@H]2C(=O)N[C@@H](CC(N)=O)C(=O)N2CCC[C@H]2C(=O)N[C@@H](Cc2c[nH]cn2)C(=O)N[C@@H](CC(=O)O)C(=O)N2C[C@H](O)C[C@H]2C(=O)N[C@@H](Cc2c[nH]c3ccccc23)C(=O)N[C@@H](C)C(=O)N[C@@H](Cc2cn(CC(=O)O)c3ccccc23)C(=O)N1C` [Example 9049] the figure was 8.00 to 9.00; with `CCCC[C@H]1C(=O)N(C)[C@@H](CCCC)C(=O)N[C@@H](CC(C)C)C(=O)N[C@H](C(N)=O)CNCC(=O)N[C@@H](Cc2ccc(O)cc2)C(=O)N2CCCC[C@H]2C(=O)N[C@@H](CC(N)=O)C(=O)N2CCC[C@H]2C(=O)N[C@@H](Cc2c[nH]cn2)C(=O)N[C@@H](CCC(=O)O)C(=O)N2C[C@H](O)C[C@H]2C(=O)N[C@@H](Cc2c[nH]c3ccccc23)C(=O)N[C@@H](C)C(=O)N[C@@H](Cc2cn(CC(=O)O)c3ccccc23)C(=O)N1C` [Example 9050], 8.00 to 9.00; with `CCCC[C@H]1C(=O)N(C)[C@@H](CCCC)C(=O)N[C@@H](CC(C)C)C(=O)N[C@H](C(N)=O)CNCC(=O)N[C@@H](Cc2ccc(O)cc2)C(=O)N2CCCC[C@H]2C(=O)N[C@@H](CC(N)=O)C(=O)N2CCC[C@H]2C(=O)N[C@@H](Cc2c[nH]cn2)C(=O)N[C@@H](CCC(N)=O)C(=O)N2C[C@H](O)C[C@H]2C(=O)N[C@@H](Cc2c[nH]c3ccccc23)C(=O)N[C@@H](C)C(=O)N[C@@H](Cc2cn(CC(=O)O)c3ccccc23)C(=O)N1C` [Example 9051], 8.00 to 9.00.
